Experimental data reported in US20140147397A1, “STABLE AMORPHOUS SOLID FORM OF A TRIAZINE DERIVATIVE AND THE CORRESPONDING MANUFACTURING PROCESS” (3V SIGMA S.P.A., priority 2012, published 2014).

What was measured:
Assay type in all cases: physicochemical
[1] = Dissolution rate test in caprylic/capric triglyceride; conditions: 4.0 g powder in 96.0 g caprylic/capric triglyceride, stirring, 25° C., visual inspection
Experimental: (§1) Description of dissolution rate test. 4.0 g of powder was dispersed under stirring in 96.0 g of caprylic/capric triglyceride solvent at 25° C. The total dissolution time was measured, with visual inspection, noting the time of complete disappearance of any heterogeneity in the form of particles or opalescence in the solution.

[2] = Dissolution rate test in ethylhexyl stearate; conditions: 4.0 g powder in 96.0 g ethylhexyl stearate, stirring, 25° C., visual inspection
Experimental: as §1, with “ethylhexyl stearate” for “caprylic/capric triglyceride”

[3] = Dissolution rate test in octyl dodecanol; conditions: 4.0 g powder in 96.0 g octyl dodecanol, stirring, 25° C., visual inspection
Experimental: as §1, with “octyl dodecanol” for “caprylic/capric triglyceride”

[4] = Stability of the amorphous solid form by DSC; conditions: for solid form stability by DSC: DSC technique
Experimental: Samples 1C and 1A were characterised by the differential scanning calorimetry (DSC) technique. […] The amorphous solid sample 1A according to the present invention presented a first exothermic transition (corresponding to a formation of crystalline form) at temperatures of between 50 and 90° C., and subsequently at 128° C., the endothermic transition corresponding to melting of the crystalline form that formed at lower temperatures.
Sample 1A was stored for 12 months at room temperature and subjected to a second DSC measurement. Its appearance was still that of a white powder.

Row | Compound | dissolution time [1] | dissolution time [2] | dissolution time [3] | DSC curve after storage (stability of amorphous form) ([4]; stored for 12 months at room temperature, second DSC measurement) | solid form stability by DSC [4]
1 | CCCCC(CC)COC(=O)c1ccc(Nc2nc(Nc3ccc(C(=O)OCC(CC)CCCC)cc3)nc(Nc3ccc(C(=O)OCC(CC)CCCC)cc3)n2)cc1 (stereo not drawn) [Sample 1A] | 15 min | 40 min | 90 min | identical to the curve obtained a year earlier | 
2 | CCCCC(CC)COC(=O)c1ccc(Nc2nc(Nc3ccc(C(=O)OCC(CC)CCCC)cc3)nc(Nc3ccc(C(=O)OCC(CC)CCCC)cc3)n2)cc1 (stereo not drawn) [Sample 1C, reference compound] | over 90 minutes | over 420 minutes (opaque white dispersion) | over 420 minutes (insoluble-opaque white dispersion) |  | 
3 | CCCCC(CC)COC(=O)c1ccc(Nc2nc(Nc3ccc(C(=O)OCC(CC)CCCC)cc3)nc(Nc3ccc(C(=O)OCC(CC)CCCC)cc3)n2)cc1 (stereo not drawn) [Sample 2A] | 15 min |  |  |  | stable amorphous form
4 | CCCCC(CC)COC(=O)c1ccc(Nc2nc(Nc3ccc(C(=O)OCC(CC)CCCC)cc3)nc(Nc3ccc(C(=O)OCC(CC)CCCC)cc3)n2)cc1 (stereo not drawn) [Sample 2C, reference compound] | over 90 minutes |  |  |  | 
5 | CCCCC(CC)COC(=O)c1ccc(Nc2nc(Nc3ccc(C(=O)OCC(CC)CCCC)cc3)nc(Nc3ccc(C(=O)OCC(CC)CCCC)cc3)n2)cc1 (stereo not drawn) [Sample 3A] | 15 min |  |  |  | stable amorphous form
